From the NIST ThermoML archive (doi:10.1016/j.jct.2010.08.006)

Key:
[1] = 101.33 kPa, Liquid, Vibrating tube method
[2] = xn = mol fraction of the nth substance listed; settings: 101 kPa, Liquid, Vibrating tube method

C1CCOC1 [tetrahydrofuran]
[1]
Settings | mass density [kg/m3]
278.15 K | 903.71
288.15 K | 892.94
298.15 K | 882.04
308.15 K | 871.01
318.15 K | 859.84

C1CCOC1 [tetrahydrofuran] + O
mass density [kg/m3], [2]
Settings | 278.15 K | 288.15 K | 298.15 K | 308.15 K | 318.15 K
x2 = 0.001775 | 903.78 | 893.01 | 882.11 | 871.08 | 859.91
x2 = 0.003887 | 903.87 | 893.1 | 882.19 | 871.16 | 859.99
x2 = 0.005362 | 903.93 | 893.16 | 882.25 | 871.23 | 860.05
x2 = 0.007677 | 904.02 | 893.25 | 882.35 | 871.32 | 860.15
x2 = 0.01096 | 904.16 | 893.38 | 882.48 | 871.45 | 860.28
x2 = 0.0142 | 904.29 | 893.52 | 882.61 | 871.58 | 860.41
x2 = 0.01729 | 904.42 | 893.65 | 882.74 | 871.71 | 860.53
x2 = 0.01971 | 904.52 | 893.75 | 882.84 | 871.81 | 860.63
x2 = 0.02568 | 904.78 | 894 | 883.09 | 872.06 | 860.88
x2 = 0.03393 | 905.13 | 894.35 | 883.44 | 872.41 | 861.22
x2 = 0.04278 | 905.52 | 894.74 | 883.83 | 872.79 | 861.6
